{"source": "patent US7186743B2", "about": "“Substituted pyrazolyl compounds for the treatment of inflammation” (Pharmacia Corporation, priority 2001, dated 2007)", "target": "T1, IKK2 (Homo sapiens, UniProt O14920)", "T1 construct": "made in house; host or cells: insect cells (baculovirus, pFastBac; SF9)", "T1 sequence (O14920 1-756)": "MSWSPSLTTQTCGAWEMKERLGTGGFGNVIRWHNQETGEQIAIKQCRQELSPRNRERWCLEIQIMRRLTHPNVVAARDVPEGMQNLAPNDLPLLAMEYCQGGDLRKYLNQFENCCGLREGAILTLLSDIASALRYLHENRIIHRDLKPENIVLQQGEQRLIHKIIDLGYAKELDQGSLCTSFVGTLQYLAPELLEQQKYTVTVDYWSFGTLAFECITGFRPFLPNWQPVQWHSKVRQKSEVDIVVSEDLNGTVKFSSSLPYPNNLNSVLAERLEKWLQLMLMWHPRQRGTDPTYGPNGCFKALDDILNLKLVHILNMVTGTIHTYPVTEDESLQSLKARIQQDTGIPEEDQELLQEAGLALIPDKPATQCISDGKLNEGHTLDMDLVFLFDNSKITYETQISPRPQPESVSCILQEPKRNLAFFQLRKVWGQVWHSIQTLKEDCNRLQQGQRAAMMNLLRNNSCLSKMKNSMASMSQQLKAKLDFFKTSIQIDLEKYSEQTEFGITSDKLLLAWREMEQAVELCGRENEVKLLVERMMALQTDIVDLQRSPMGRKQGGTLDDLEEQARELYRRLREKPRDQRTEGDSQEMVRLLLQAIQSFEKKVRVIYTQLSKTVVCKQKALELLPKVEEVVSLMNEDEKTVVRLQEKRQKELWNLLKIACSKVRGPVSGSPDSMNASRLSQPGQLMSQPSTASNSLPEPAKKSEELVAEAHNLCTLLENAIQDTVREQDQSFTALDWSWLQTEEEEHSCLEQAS", "assay": "IKKβ Resin Enzyme Assay (IKK2 resin)", "assay_type": "biochemical", "description": "cDNAs of human IKK1 and IKK2 were amplified by reverse transcriptase-polymerase chain reaction from human placental RNA (Clonetech). hIKK1 was subcloned into pFastBac HTa (Life Technologies) and expressed as N-terminal His6-tagged fusion protein. The hIKK2 cDNA was amplified using a reverse oligonucleotide primer which incorporated the peptide sequence for a FLAG-epitope tag at the C-terminus of the IKK2 coding region ([…]). The hIKK2:FLAG cDNA was subcloned into the baculovirus vector pFastBac. The rhIKK2 ([…]) mutant was constructed in the same vector used for wild type rhIKK2 using a QuikChange™ mutagenesis kit (Stratagene). Viral stocks of each construct were used to infect insect cells grown in 40 L suspension culture. […] Cell lysates were stored at −80° C. until purification of the recombinant proteins was undertaken as described below.\nA 10-liter culture of baculovirus-expressing IKK2 tagged with FLAG peptide was centrifuged and the cell pellet (MOI=0.1 and I=72 hrs) was re-suspended in buffer A. These cells were microfluidized, and centrifuged at 100,000×g for 45 min. Supernatant was passed over a G-25 column equilibrated with Buffer A. Protein peak was collected and incubated with anti-FLAG affinity resin on a rotator overnight in buffer B. The resin was washed in batch with 10–15 bed volumes of buffer C. Washed resin was poured into a column and rhIKK2 homodimer was eluted using 5 bed volumes of buffer B containing FLAG peptide. 5 mM DTT, 0.1% NP-40 and BSA (concentrated to 0.1% in final amount) was added to the eluted enzyme before concentrating in using an Amicon membrane with a molecular weight cut-off of 30 kDa. Enzyme was aliquoted and stored at −80° C.\nIKKβ kinase activity was measured using a biotinylated IκBα peptide ([…]32-Gly-Leu-Asp-Ser36-Met-Lys-Asp-Glu-Glu) (American Peptide Co.). […] ATP (Amersham) (about 1×10^5 cpm), 1 μM ATP (Sigma), 1 mM DTT (Sigma), 2 mM MgCl2 (Sigma), 2 mM MnCl2 (Sigma), 10 mM NaF (Sigma), 25 mM Hepes (Sigma) buffer, pH 7.6 and 20 μl enzyme solution and 10 ul inhibitor in a final volume of 50 μl. After incubation at 25° C. for 30 min, 150 μl resin (Dowex anion-exchange resin AG1X8 200–400 mesh) in 900 mM formate, pH 3.0 was added to each well to stop the reaction. Resin was allowed to settle for one hour and 50 ul of supernatant was removed to a Micolite-2 flat bottom plate (Dynex). 150 μl of scintillation fluid (Microscint 40) (Packard) was added to each well. Incorporation of [γ-^33P] ATP was measured using a Top-Count NXT (Packard).", "key": {"[1]": {"settings": "Table 2, read-out: IKK Resin IC50"}, "[2]": {"settings": "Table 6, read-out: IKK2 Resin IC 50"}}, "note": "Structures can show the parent of a compound that is named as a salt. Where two headings read alike, the source gives them in different places.", "data": [{"compound": "CN1CCN(c2ccc(Cl)c(C(=O)Nc3ccc4c(c3)-c3c(c(C(N)=O)nn3-c3ccc(F)cc3)CC4)c2)CC1", "note": "[Example 258, 8-{[2-chloro-5-(4-methylpiperazin-1-yI)benzoyl]amino}-1-(4-fluorophenyl)-4,5-dihydro-1H-benzo[g]indazole-3-carboxamide]", "values": [{"measurement": "IC50", "setting": "Table 7, read-out: IKK2 Resin IC50", "result": "≤ 1000", "unit": "nM"}]}, {"compound": "CS(=O)(=O)c1ccc(-n2nc(C(N)=O)c3c2-c2cc(NC(=O)c4ccc(N=[N+]=[N-])cc4)ccc2CC3)cc1", "note": "[Example 122, 8-[(4-azidobenzoyl)amino]-1-[4-(methylsulfonyl)phenyl]-4,5-dihydro-1H-benzo[g]indazole-3-carboxamide]", "values": [{"measurement": "IC50", "setting": "[1]", "result": "≤ 1000", "unit": "nM"}]}, {"compound": "CN(C)CC(=O)Nc1ccc(Cl)c(C(=O)Nc2ccc3c(c2)-c2c(c(C(N)=O)nn2-c2ccc(S(C)(=O)=O)cc2)CC3)c1", "note": "[Example 119, 8-({2-chloro-5-[(N,N-dimethylglycyl)amino]benzoyl}amino)-1-[4-(methylsulfonyl)phenyl]-4,5-dihydro-1H-benzo[g]indazole-3-carboxamidehydrochloride]", "values": [{"measurement": "IC50", "setting": "[1]", "result": "≤ 1000", "unit": "nM"}]}, {"compound": "NC(=O)c1nn(-c2ccc(F)cc2)c2c1CCc1ccc(NC(=O)c3cccnc3Cl)cc1-2", "note": "[Example 225, 8-{[(2-chloropyridin-3-yl)carbonyl]amino}-1-(4-fluorophenyl)-4,5-dihydro-1H-benzo[g]indazole-3-carboxamide]", "values": [{"measurement": "IC50", "setting": "[2]", "result": "≤ 1000", "unit": "nM"}]}, {"compound": "COc1ccc([N+](=O)[O-])c(C(=O)Nc2ccc3c(c2)-c2c(c(C(N)=O)nn2-c2ccc(S(C)(=O)=O)cc2)CC3)c1", "note": "[Example 147, 8-[(5-methoxy-2-nitrobenzoyl)amino]-1-[4-(methylsulfonyl)phenyl]-4,5-dihydro-1H-benzo[g]indazole-3-carboxamide]", "values": [{"measurement": "IC50", "setting": "Table 3, read-out: IKK Resin IC50", "result": "≤ 1000", "unit": "nM"}]}, {"compound": "CN(C)CCNC(=O)c1ccc(-n2nc(C(N)=O)c3c2-c2cc(NC(=O)c4ccccc4Cl)ccc2CC3)cc1", "note": "[Example 380, 8-[(2-chlorobenzoyl)amino]-1-[4-({[2-(dimethylamino)ethyl]amino}carbonyl)phenyl]-4,5-dihydro-1H-benzo[g]indazole-3-carboxamide hydrochloride]", "values": [{"measurement": "IC50", "setting": "Table 15, read-out: IKK2 Resin IC50", "result": "1000 to 10000", "unit": "nM"}]}, {"compound": "NC(=O)c1nn(-c2ccc(F)c(Cl)c2)c2c1CCc1ccc(NC(=O)c3ccccc3Cl)cc1-2", "note": "[Example 356, 8-[(2-chlorobenzoyl)amino]-1-(3-chloro-4-fluorophenyl)-4,5-dihydro-1H-benzo[g]indazole-3-carboxamide]", "values": [{"measurement": "IC50", "setting": "Table 14, read-out: IKK2 Resin IC50", "result": "≤ 1000", "unit": "nM"}]}, {"compound": "CS(=O)(=O)c1ccc(-n2nc(C(N)=O)c3c2-c2cc(NC(=O)c4cccc(Cl)c4Cl)ccc2CC3)cc1", "note": "[Example 96, 8-[(2,3-dichlorobenzoyl)amino]-1-[4-(methylsulfonyl)phenyl]-4,5-dihydro-1H-benzo[g]indazole-3-carboxamide]", "values": [{"measurement": "IC50", "setting": "[1]", "result": "≤ 1000", "unit": "nM"}]}, {"compound": "CN(C)c1ccc(Cl)c(C(=O)Nc2ccc3c(c2)-c2c(c(C(N)=O)nn2-c2ccc(F)cc2)CC3)c1", "note": "[Example 237, 8-{[2-chloro-5-(dimethylamino)benzoyl]amino}-1-(4-fluorophenyl)-4,5-dihydro-1H-benzo[g]indazole-3-carboxamide]", "values": [{"measurement": "IC50", "setting": "[2]", "result": "≤ 1000", "unit": "nM"}]}, {"compound": "Cc1ccccc1C(=O)Nc1ccc2c(c1)-c1c(c(C(N)=O)nn1-c1ccc(F)cc1)CC2", "note": "[Example 240, 1-(4-fluorophenyl)-8-[(2-methylbenzoyl)amino]-4,5-benzo[g]indazole-3-dihydro-1H-carboxamide]", "values": [{"measurement": "IC50", "setting": "[2]", "result": "≤ 1000", "unit": "nM"}]}, {"compound": "NC(=O)c1nn(-c2ccc(OCc3ccccc3)cc2)c2c1CCc1ccc(NC(=O)c3ccccc3Cl)cc1-2", "note": "[Example 259, 1-[4-(benzyloxy)phenyl]-8-[(2-chlorobenzoyl)amino]-4,5-dihydro-1H-benzo[g]indazole-3-carboxamide]", "values": [{"measurement": "IC50", "setting": "Table 8, read-out: IKK2 Resin IC50", "result": "> 10000", "unit": "nM"}]}, {"compound": "Cc1ccccc1C(=O)Nc1ccc2c(c1)-c1c(c(C(N)=O)nn1-c1ccc(S(C)(=O)=O)cc1)CC2", "note": "[Example 94, 8-[(2-methylbenzoyl)amino]-1-[4-(methylsulfonyl)phenyl]-4,5-dihydro-1H-benzo[g]indazole-3-carboxamide]", "values": [{"measurement": "IC50", "setting": "[1]", "result": "≤ 1000", "unit": "nM"}]}]}
